Consider 40 compounds from BindingDB's records for patent US20250313563 (The Broad Institute, 2025).

Values joined by “and” are separate entries in the source; they are usually repeats but may differ in a detail not shown here. Equal values may be shown once.

The target of this experiment is Glycogen synthase kinase-3 beta (Homo sapiens, UniProt P49841). The experiment is described as follows: TR-FRET Assay. The method, then:
The assay was performed in a white, 384 well, low volume, flat bottom plate (Grenier). […] The kinase activity was quenched with 2 μL of 250 mM EDTA. A 10 μL volume of 40 nM Strepavidin-d2, 2 nM Tb2+-pSer641 antibody in TR-FRET Detection Buffer (Invitrogen) was then added.
(In general: TR-FRET usually uses a lanthanide donor and a delayed reading to cut background.)

Chain of Glycogen synthase kinase-3 beta (P49841 whole entry): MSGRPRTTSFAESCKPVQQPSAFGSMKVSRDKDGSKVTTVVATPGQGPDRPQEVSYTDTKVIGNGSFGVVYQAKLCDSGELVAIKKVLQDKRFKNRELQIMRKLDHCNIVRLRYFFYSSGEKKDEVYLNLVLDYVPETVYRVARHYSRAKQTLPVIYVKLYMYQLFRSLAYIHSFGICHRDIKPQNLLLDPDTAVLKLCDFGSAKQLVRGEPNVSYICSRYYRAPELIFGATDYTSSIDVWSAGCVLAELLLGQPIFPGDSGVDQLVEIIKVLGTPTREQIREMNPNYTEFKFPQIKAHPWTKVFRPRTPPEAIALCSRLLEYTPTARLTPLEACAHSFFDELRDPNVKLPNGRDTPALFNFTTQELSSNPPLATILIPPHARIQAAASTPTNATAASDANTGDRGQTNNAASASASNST

`CC[C@]1(c2cccc(-c3cn(C)nc3C(F)(F)F)c2)C2=CN=NC2NC2=C1C(=O)NC(C)(C)C2` (stereo not given in full) [US20250313563, Compound 949266]: the IC50 was 100 to 1000 nM.
As for `CC[C@@]1(c2cccc(Oc3ncccn3)c2)C2=C(CC(C)(C)CC2=O)NC2N=NC(C(F)(F)F)=C21` (stereo not given in full) [US20250313563, Compound 951604], the IC50 lay in the range of 100 to 1000 nM.
As to `CC[C@]1(c2cccc(-c3cnn(C)c3C)c2)C2=C(CC(C)(C)CC2=O)NC2N=NC(C)=C21` (stereo not given in full) [US20250313563, Compound 913045], the IC50 was < 100 nM and 100 to 1000 nM.
As for `CC[C@@]1(c2cccc(-c3c(F)cncc3OC)c2)C2=CN=NC2NC2=C1C(=O)CC(C)(C)[C@@H]2F` (stereo not given in full) [US20250313563, Compound 948548], the figure is 100 to 1000 nM; as for `CC[C@@]1(c2cccc(-c3ccnc(C)c3)c2)C2=CN=NC2NC2=C1C(=O)C[C@]1(CCOC1)C2` (stereo not given in full) [US20250313563, Compound 947407], 1000 to 5000 nM.
As for `CC[C@@]1(c2cccc(-c3cc(C)ncc3F)c2)C2=CN=NC2NC2=C1C(=O)CC(C)(C)C2` (stereo not given in full) [US20250313563, Compound 927346], the figure is 1000 to 5000 nM; as for `CC[C@@]1(c2cccc(C(F)(F)F)c2)C2=CN=NC2NC2=C1C(=O)C[C@]1(CCNC1=O)C2` (stereo not given in full) [US20250313563, Compound 950324], 100 to 1000 nM; as for `CC1(C)CC(=O)C2=C(C1)NC1N=NC(C3CC(F)(F)C3)=C1[C@]21COc2ccccc21` (stereo not given in full) [US20250313563, Compound 127429], 1000 to 5000 nM.
As for `CCC1(c2cccc(-c3cc(C)nnc3C)c2)C2=C(CC(C)(C)NC2=O)NC2N=NC(C)=C21` (stereo not given) [US20250313563, Compound 948766], the IC50 was in the range of 100 to 1000 nM.
As for `CC[C@]1(c2cccc(C(F)(F)F)c2)C2=CN=NC2NC2=C1C(=O)N(c1cnc(OC)nc1)[C@H](C)C2` (stereo not given in full) [US20250313563, Compound 949351], the figure is 100 to 1000 nM; as for `CC[C@]1(c2cccc(-c3cnn4c3CCCC4)c2)C2=C(CC(C)(C)CC2=O)NC2N=NC(C)=C21` (stereo not given in full) [US20250313563, Compound 913036], 100 to 1000 nM; as for `CC[C@@]1(c2cccc(-c3ccnn3C)c2)C2=C(CC(C)(C)CC2=O)NC2N=NC(C)=C21` (stereo not given in full) [US20250313563, Compound 913023], < 100 nM and 100 to 1000 nM.
As for `CC[C@]1(c2cccc(-c3ccnc(C)c3)c2)C2=CN=NC2NC2=C1C(=O)NC(C)(COC)C2` (stereo not given in full) [US20250313563, Compound 948521], the figure is 1000 to 5000 nM; as for `CC[C@]1(c2cccc(-c3c(C)cnc4ccccc34)c2)C2=C(CC(C)(C)NC2=O)NC2=NN=CC21` (stereo not given in full) [US20250313563, Compound 949398], 100 to 1000 nM.
As for `Cn1ccc(S(=O)(=O)N2CC[C@@]3(C2)C2=C(N=NC2)NC2=C3C(=O)CC(C)(C)C2)n1` [US20250313563, Compound 945712], the figure is 100 to 1000 nM; as for `CC[C@]1(c2cccc(-c3ccncc3F)c2)C2=C(CC(C)(C)CC2=O)NC2N=NC(C)=C21` (stereo not given in full) [US20250313563, Compound 913052], 100 to 1000 nM.
`CC[C@@]1(c2cccc(N3CCCCC3)c2)C2=C(CC(C)(C)NC2=O)NC2N=NC(C(F)(F)F)=C21` (stereo not given in full) [US20250313563, Compound 949183] registered an IC50 of 100 to 1000 nM.
As for `CC[C@]1(c2cccc(S(=O)(=O)CC3CC3)c2)C2=CN=NC2NC2=C1C(=O)CC(C)(C)C2` (stereo not given in full) [US20250313563, Compound 917150], the figure is 100 to 1000 nM; as for `CCC1(c2cccc(-c3ccncc3)c2)C2=CN=NC2NC2=C1C(=O)CC(C)(C)C2` (stereo not given) [US20250313563, Compound 883984], below 100 nM.
For `CC[C@]1(c2cccc(S(=O)(=O)C3CC3)c2)C2=CN=NC2NC2=C1C(=O)CC(C)(C)C2` (stereo not given in full) [US20250313563, Compound 912171], the IC50 was < 100 nM and 100 to 1000 nM.
In turn, `CC[C@@]1(c2cccc(-c3cnn(CC#N)c3)c2)C2=CN=NC2NC2=C1C(=O)NC(C)(C)C2` (stereo not given in full) [US20250313563, Compound 952210] came in with an IC50 of 100 to 1000 nM.
As for `CC(C)(C)CC1N=NC2=C1C1(CN(c3ccccc3)C1)C1=C(CC(C)(C)CC1=O)N2` (stereo not given) [US20250313563, Compound 93429], the figure is 1000 to 5000 nM and 134 nM.
As for `CC[C@]1(c2cccc(C(F)(F)F)c2)C2=C(N=NC2)NC2=C1C(=O)N[C@@H]2C` [US20250313563, Compound 945378], the figure is 100 to 1000 nM.
As for `CC[C@@]1(c2cccc(C(F)(F)F)c2)C2=C(N=NC2)NC2=C1C(=O)N(C)[C@H]2C` [US20250313563, Compound 913495], the figure is above 5000 nM; as for `CC[C@@]1(c2cccc(C3=CN=NC3)c2)C2=C(CC(C)(C)CC2=O)NC2N=NC(C)=C21` (stereo not given in full) [US20250313563, Compound 913025], 100 to 1000 nM.
On to `CC[C@@]1(c2cccc(-c3c(Cl)cncc3Cl)c2)C2=CN=NC2NC2=C1C(=O)NC(C)(C)C2` (stereo not given in full) [US20250313563, Compound 948515], for which the IC50 lay in the range of 100 to 1000 nM.
`CC[C@@]1(c2cccc(-c3c(F)cncc3OC)c2)C2=C(N=NC2)NC2=C1C(=O)N(Cc1ccccc1)C2` [US20250313563, Compound 948550] displayed an IC50 of 100 to 1000 nM.
As for `CC1(C)CC(=O)C2=C(C1)NC1=C(CN=N1)[C@@]21COC2(CN(C(=O)C3CCC4(CC3)COC4)C2)C1` [US20250313563, Compound 944075], the figure is 100 to 1000 nM.
As for `CC[C@@]1(c2cccc(-c3ccncc3Cl)c2)C2=CN=NC2NC2=C1C(=O)NC(C)(C)C2` (stereo not given in full) [US20250313563, Compound 948142], the figure is 100 to 1000 nM.
As for `CC[C@@]1(c2cccc(-c3ccnc4c3CCCC4)c2)C2=CN=NC2NC2=C1C(=O)CC(C)(C)C2` (stereo not given in full) [US20250313563, Compound 944033], the figure is 100 to 1000 nM; as for `CC(C)(C)CC1N=NC2=C1[C@@](C)(c1ccccc1)C1=C(CC(C)(C)NC1=O)N2` (stereo not given in full) [US20250313563, Compound 114532], above 5000 nM.
`CC[C@]1(c2cccc(-c3ccnc(O)c3)c2)C2=CN=NC2NC2=C1C(=O)CC(C)(C)C2` (stereo not given in full) [US20250313563, Compound 943992] returned an IC50 of 100 to 1000 nM.
Regarding `CC[C@]1(c2cccc(N(C)c3nccc(C)n3)c2)C2=CN=NC2NC2=C1C(=O)CC(C)(C)C2` (stereo not given in full) [US20250313563, Compound 945328], the IC50 was in the range of 100 to 1000 nM.
As for `CC[C@]1(c2cccc(-c3ccnn3C)c2)C2=CN=NC2NC2=C1C(=O)CC(C)(C)C2` (stereo not given in full) [US20250313563, Compound 911992], the figure is 100 to 1000 nM.
As for `CCCn1nccc1-c1cccc([C@]2(CC)C3=CN=NC3NC3=C2C(=O)CC(C)(C)C3)c1` (stereo not given in full) [US20250313563, Compound 946093], the figure is 100 to 1000 nM; as for `CC[C@]1(c2cccc(-c3ccncc3F)c2)C2=CN=NC2NC2=C1C(=O)CC(C)(C)C2` (stereo not given in full) [US20250313563, Compound 943518], 100 to 1000 nM.
As for `CC[C@]1(c2cccc(S(=O)(=O)C(C)C)c2)C2=C(CC(C)(C)NC2=O)NC2=C1C(C)N=N2` (stereo not given in full) [US20250313563, Compound 947870], the figure is 100 to 1000 nM; as for `CC[C@]1(c2cccc(-c3ccnc4c3CCCC4)c2)C2=C(N=NC2)NC2=C1C(=O)N(Cc1ccccc1)C2` [US20250313563, Compound 948551], 100 to 1000 nM.
As to `CC[C@@]1(c2cccc(-c3cncn3C(C)C)c2)C2=CN=NC2NC2=C1C(=O)CC(C)(C)C2` (stereo not given in full) [US20250313563, Compound 945725], the IC50 was < 100 nM and 100 to 1000 nM.
In turn, `CC[C@]1(c2cccc(C(F)(F)F)c2)C2=CN=NC2NC2=C1C(=O)N(c1ccccc1)CC2` (stereo not given in full) [US20250313563, Compound 929474] returned an IC50 of 100 to 1000 nM.

In general, IC50 refers to the midpoint of a concentration-inhibition curve.
